In PubChem BioAssay (NCI):
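Dose response: 5 concentrations. Exposure: 48 h. Format: 96-well plates. Endpoint: linear interpolation; highest concentration if not reached. At the GI50, growth is halved. Definition used: TGI = concentration required for complete inhibition of growth.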

What was measured:
Test in all cases: NCI anticancer screen, dose series, 48 h
HL-60(TB) leukemia = system: HL-60(TB) leukemia
MDA-MB-468 breast = system: MDA-MB-468 breast
SW-620 colon = system: SW-620 colon
RPMI-8226 leukemia = system: RPMI-8226 leukemia
NCI/ADR-RES ovarian = system: NCI/ADR-RES ovarian
CAKI-1 renal = system: CAKI-1 renal
SR leukemia = system: SR leukemia
786-0 renal = system: 786-0 renal
HCC-2998 colon = system: HCC-2998 colon
A549 NSCLC = system: A549 NSCLC
CCRF-CEM leukemia = system: CCRF-CEM leukemia
U251 CNS = system: U251 CNS
MOLT-4 leukemia = system: MOLT-4 leukemia
UO-31 renal = system: UO-31 renal
SK-MEL-2 melanoma = system: SK-MEL-2 melanoma
EKVX NSCLC = system: EKVX NSCLC
BT-549 breast = system: BT-549 breast
SN12C renal = system: SN12C renal
MALME-3M melanoma = system: MALME-3M melanoma
UACC-257 melanoma = system: UACC-257 melanoma
HCT-116 colon = system: HCT-116 colon
T-47D breast = system: T-47D breast
K-562 leukemia = system: K-562 leukemia
OVCAR-3 ovarian = system: OVCAR-3 ovarian
SF-295 CNS = system: SF-295 CNS
MDA-MB-231 breast = system: MDA-MB-231 breast
DU-145 prostate = system: DU-145 prostate
HT29 colon = system: HT29 colon
KM12 colon = system: KM12 colon
COLO 205 colon = system: COLO 205 colon
A498 renal = system: A498 renal
MDA-MB-435 = system: MDA-MB-435
SK-MEL-5 melanoma = system: SK-MEL-5 melanoma
HOP-62 NSCLC = system: HOP-62 NSCLC
SK-OV-3 ovarian = system: SK-OV-3 ovarian
NCI-H460 lung = system: NCI-H460 lung
OVCAR-5 ovarian = system: OVCAR-5 ovarian
M14 melanoma = system: M14 melanoma
ACHN renal = system: ACHN renal
UACC-62 melanoma = system: UACC-62 melanoma
HS 578T breast = system: HS 578T breast
SNB-75 CNS = system: SNB-75 CNS
NCI-H522 lung = system: NCI-H522 lung
LOX IMVI melanoma = system: LOX IMVI melanoma
PC-3 prostate = system: PC-3 prostate
HCT-15 colon = system: HCT-15 colon
SNB-19 CNS = system: SNB-19 CNS
TK-10 renal = system: TK-10 renal
NCI-H226 lung = system: NCI-H226 lung
NCI-H23 lung = system: NCI-H23 lung
MCF7 breast = system: MCF7 breast
IGROV1 ovarian = system: IGROV1 ovarian
OVCAR-4 ovarian = system: OVCAR-4 ovarian
OVCAR-8 ovarian = system: OVCAR-8 ovarian
SF-268 CNS = system: SF-268 CNS
SK-MEL-28 melanoma = system: SK-MEL-28 melanoma
RXF 393 renal = system: RXF 393 renal
SF-539 CNS = system: SF-539 CNS
HOP-92 NSCLC = system: HOP-92 NSCLC

For `CC(=C(c1ccc(OCCN2CCCCCC2)cc1)c1ccc(OCCN2CCCCCC2)cc1)c1ccc(Cl)cc1`, the GI50 (HL-60(TB) leukemia) was 1.32 µM, the TGI (HL-60(TB) leukemia) was 9.39 µM and the GI50 (MDA-MB-468 breast) was 1.3 µM. The TGI (MDA-MB-468 breast) was 6.08 µM, the GI50 (SW-620 colon) was 0.757 µM and the TGI (SW-620 colon) was 1.75 µM. It also gave a GI50 (RPMI-8226 leukemia) of 1.29 µM, a TGI (RPMI-8226 leukemia) of 4.7 µM and a GI50 (NCI/ADR-RES ovarian) of 5.82 µM. It also gave a TGI (NCI/ADR-RES ovarian) of 11.6 µM, a GI50 (CAKI-1 renal) of 4.69 µM and a TGI (CAKI-1 renal) of 9.75 µM. It also gave a GI50 (SR leukemia) of 0.963 µM, a TGI (SR leukemia) of 3.33 µM and a GI50 (786-0 renal) of 3.62 µM. It also gave a TGI (786-0 renal) of 10.5 µM, a GI50 (HCC-2998 colon) of 1.05 µM and a TGI (HCC-2998 colon) of 3.86 µM. It also gave a GI50 (A549 NSCLC) of 4.64 µM, a TGI (A549 NSCLC) of 12.1 µM and a GI50 (CCRF-CEM leukemia) of 1.11 µM. For the same molecule, the TGI (CCRF-CEM leukemia) was 3.88 µM, the GI50 (U251 CNS) was 5.31 µM and the TGI (U251 CNS) was 11.3 µM. The GI50 (MOLT-4 leukemia) was 1.08 µM, the TGI (MOLT-4 leukemia) was 3.33 µM and the GI50 (UO-31 renal) was 4.66 µM. For the same molecule, the TGI (UO-31 renal) was 9.6 µM, the GI50 (SK-MEL-2 melanoma) was 6.88 µM and the TGI (SK-MEL-2 melanoma) was 12.6 µM. It also gave a GI50 (EKVX NSCLC) of 5.77 µM, a TGI (EKVX NSCLC) of 11.5 µM and a GI50 (BT-549 breast) of 7.09 µM. It also gave a TGI (BT-549 breast) of 13.3 µM, a GI50 (SN12C renal) of 5.38 µM and a TGI (SN12C renal) of 10.9 µM. The GI50 (MALME-3M melanoma) was 0.745 µM, the TGI (MALME-3M melanoma) was 1.66 µM and the GI50 (UACC-257 melanoma) was 1.44 µM. For the same molecule, the TGI (UACC-257 melanoma) was 5.62 µM, the GI50 (HCT-116 colon) was 1.49 µM and the TGI (HCT-116 colon) was 6.22 µM. For the same molecule, the GI50 (T-47D breast) was 2.89 µM, the TGI (T-47D breast) was 9.27 µM and the GI50 (K-562 leukemia) was 0.908 µM. It also gave a TGI (K-562 leukemia) of 40.7 µM, a GI50 (OVCAR-3 ovarian) of 2.83 µM and a TGI (OVCAR-3 ovarian) of 8.44 µM. It also gave a GI50 (SF-295 CNS) of 1.97 µM, a TGI (SF-295 CNS) of 7.2 µM and a GI50 (MDA-MB-231 breast) of 4.19 µM. For the same molecule, the TGI (MDA-MB-231 breast) was 8.99 µM, the GI50 (DU-145 prostate) was 5.19 µM and the TGI (DU-145 prostate) was 10.4 µM. The GI50 (HT29 colon) was 0.942 µM, the TGI (HT29 colon) was 2.55 µM and the GI50 (KM12 colon) was 4.56 µM. For the same molecule, the TGI (KM12 colon) was 10.1 µM, the GI50 (COLO 205 colon) was 0.813 µM and the TGI (COLO 205 colon) was 1.62 µM. The GI50 (A498 renal) was 5.47 µM, the TGI (A498 renal) was 11 µM and the GI50 (MDA-MB-435) was 0.807 µM. The TGI (MDA-MB-435) was 1.9 µM, the GI50 (SK-MEL-5 melanoma) was 2.84 µM and the TGI (SK-MEL-5 melanoma) was 8.15 µM. It also gave a GI50 (HOP-62 NSCLC) of 5.77 µM, a TGI (HOP-62 NSCLC) of 11.6 µM and a GI50 (SK-OV-3 ovarian) of 6.46 µM. The TGI (SK-OV-3 ovarian) was 12.1 µM, the GI50 (NCI-H460 lung) was 1.37 µM and the TGI (NCI-H460 lung) was 5.14 µM. The GI50 (OVCAR-5 ovarian) was 5 µM, the TGI (OVCAR-5 ovarian) was 10.1 µM and the GI50 (M14 melanoma) was 0.838 µM. It also gave a TGI (M14 melanoma) of 1.85 µM, a GI50 (ACHN renal) of 5.9 µM and a TGI (ACHN renal) of 11.2 µM. For the same molecule, the GI50 (UACC-62 melanoma) was 1.09 µM, the TGI (UACC-62 melanoma) was 3.57 µM and the GI50 (HS 578T breast) was 5.25 µM. For the same molecule, the TGI (HS 578T breast) was 13.3 µM, the GI50 (SNB-75 CNS) was 4.78 µM and the TGI (SNB-75 CNS) was 9.96 µM. The GI50 (NCI-H522 lung) was 4.84 µM, the TGI (NCI-H522 lung) was 10.1 µM and the GI50 (LOX IMVI melanoma) was 0.776 µM. For the same molecule, the TGI (LOX IMVI melanoma) was 1.61 µM, the GI50 (PC-3 prostate) was 4.53 µM and the TGI (PC-3 prostate) was 10 µM. It also gave a GI50 (HCT-15 colon) of 1.48 µM, a TGI (HCT-15 colon) of 5.7 µM and a GI50 (SNB-19 CNS) of 6.06 µM. For the same molecule, the TGI (SNB-19 CNS) was 11.5 µM, the GI50 (TK-10 renal) was 6.19 µM and the TGI (TK-10 renal) was 11.7 µM. The GI50 (NCI-H226 lung) was 5.96 µM, the TGI (NCI-H226 lung) was 12.6 µM and the GI50 (NCI-H23 lung) was 5.58 µM. It also gave a TGI (NCI-H23 lung) of 11.1 µM, a GI50 (MCF7 breast) of 0.654 µM and a TGI (MCF7 breast) of 1.77 µM. For the same molecule, the GI50 (IGROV1 ovarian) was 5.09 µM, the TGI (IGROV1 ovarian) was 10.3 µM and the GI50 (OVCAR-4 ovarian) was 5.76 µM. For the same molecule, the TGI (OVCAR-4 ovarian) was 11.7 µM, the GI50 (OVCAR-8 ovarian) was 7.95 µM and the TGI (OVCAR-8 ovarian) was 18.5 µM. It also gave a GI50 (SF-268 CNS) of 5.44 µM, a TGI (SF-268 CNS) of 11.4 µM and a GI50 (SK-MEL-28 melanoma) of 0.682 µM. The TGI (SK-MEL-28 melanoma) was 1.29 µM, the GI50 (RXF 393 renal) was 1.76 µM and the TGI (RXF 393 renal) was 7.23 µM. The GI50 (SF-539 CNS) was 4.54 µM, the TGI (SF-539 CNS) was 9.49 µM and the GI50 (HOP-92 NSCLC) was 2.01 µM. The TGI (HOP-92 NSCLC) was 8.1 µM.
